Test results as given in paper PMC9256669, “Monomethyl auristatin antibody and peptide drug conjugates for trimodal cancer chemo-radio-immunotherapy” (Nature Communications, 2022).
Several values for one entry are separate records, joined by “and”; a condition that tells them apart may be missing. Equal entries are not always repeated. Entries after “also recorded” stand apart in the source; their conditions may differ. Where two headings read alike, the source gives them in different places. Non-standard residues stand in square brackets, D forms with d. Residues, ends and D or L forms follow the SMILES beside them. Dolaproine = CO[C@@H]([C@@H]1CCCN1)[C@@H](C)C(=O)O; Dil = CC[C@H](C)[C@H](NC)[C@@H](CC(=O)O)OC; NMeV = CN[C@H](C(=O)O)C(C)C

What was measured:
A549 = test: Cytotoxicity, Alamar Blue assay; type: cell-based, human; details: 72 h drug exposure, one value per biological replicate
Description: (§1) Cells were plated in 96-well plates and exposed to a drug concentration range for 72 h. Alamar Blue was added to the cells and allowed to incubate for 2–4 h at 37 °C. Plates were analyzed using a plate reader with fluorescence measured at 560 nm. Fractional survival was normalized to untreated control cell fluorescent values. Drug IC50 was calculated using Prism software (GraphPad, La Jolla, CA). Cell viability, cytotoxicity and apoptosis were also measured by ApoTox-Glo Triplex Assay (Promega).

HCT116 = test: Cytotoxicity, Alamar Blue assay; type: cell-based, human; details: 72 h drug exposure, one value per biological replicate
Description: as §1

CAL27 = test: Cytotoxicity, Alamar Blue assay; type: cell-based, human
Description: (§2) Murine colorectal (MC38 (ENH204-FP)) cancer cell lines were obtained from Kerafast. Murine head and neck MOC1 and MOC2 were generously provided by Dr. R. Uppaluri. CAL27 PIK3CA H1047R expressing cells and 4MOSC1 cells were generated in Dr. Gutkind’s laboratory and previously characterized[42],[55]. […] MC38 cells were cultured in DMEM supplemented with 10% FBS, 1 mM sodium pyruvate (Gibco), 1% non-essential amino acids (Gibco), and 10 mM HEPES (Gibco). MOC1 and MOC2 cells were cultured in IMDM (Lonza)/F-12K nutrient mixture at a 2:1 mixture with 5% FBS, 5 ng/ml EGF (EMD Millipore), 400 ng/ml hydrocortisone (Sigma), and […] insulin (Sigma). On receipt, each cell line was expanded, cryopreserved as low passage stocks, and routinely tested for mycoplasma. Cisplatin (Enzo Biosciences), paclitaxel (Sigma), and MMAE (Concortis) were reconstituted in DMSO. Clinical-grade CDX3379 was provided by Celldex. Clinical grade cetuximab (Erbitux, Lilly Medical) was obtained from UCSD Moores Cancer Center Pharmacy.
as §1

Detroit 562 = test: Cytotoxicity, Alamar Blue assay; type: cell-based, human
Description: as §2, §1

4MOSC1 = test: Cytotoxicity, Alamar Blue assay; type: cell-based, murine
Description: as §2, §1

B16 = test: Cytotoxicity, Alamar Blue assay; type: cell-based, murine
Description: as §2, §1

LL2 = test: Cytotoxicity, Alamar Blue assay; type: cell-based, murine
Description: as §2, §1

MC38 = test: Cytotoxicity, Alamar Blue assay; type: cell-based, murine
Description: as §2, §1

MOC1 = test: Cytotoxicity, Alamar Blue assay; type: cell-based, murine
Description: as §2, with “Clinical-grade CDX3379 was provided by Celldex.” left out
as §1
(§3) measured by Alamar Blue assay. For Alamar Blue assay cytotoxicity, we measured cell viability at 72 hr of […]

MOC2 = test: Cytotoxicity, Alamar Blue assay; type: cell-based, murine
Description: as §2, with “Clinical-grade CDX3379 was provided by Celldex.” left out
as §1, §3

[1] = cited from earlier work
[2] = system: melanoma and lung cancer models; details: without radiotherapy; cited from earlier work
Source text: In the last decade, therapeutics targeting immune checkpoint inhibitors (i.e., CTLA-4, PD-1, and PD-L1) have revolutionized cancer care for subsets of oncology patients[24],[25]. There is tremendous interest in developing strategies to further improve immune checkpoint inhibitor responses to wider patient populations. To achieve increasing therapeutic precision, integrating the specificity of ADC with inherent targeting of radiotherapy and immunotherapy is appealing. […] U3-1402 is a HER3-targeted ADC with a topoisomer ...

B16 tumors = test: Subcutaneous tumor therapy, CDX3379-MMAE or CDX3379-MMAF with IR, mouse survival; type: in vivo, C57BL/6 mice
Description: MOC1, B16, LL/2, and MC38 tumor cells were injected subcutaneously into the hindlimbs of 6-week-old female C57BL/6 albino mice in 100 µl of 1:1 Matrigel (BD) and PBS solution. Fractionated IR was delivered focally to the tumor-bearing hindlimbs (3 Gy to MC38 tumors and 5 Gy to LL/2 and B16 tumors) as indicated in figure legends using a PXI X-RAD 225 XL irradiator at maximal dose rate of 3 Gy/min with a beam-conditioning aluminum filter (Precision X-ray Irradiation). For RAG1 KO studies, 6-week-old female Rag1^tm1Mom mice were injected subcutaneously with tumor cells in their hindlimbs (Jackson Labs). For CD8 depletion studies, mice were i.p. injected with anti-CD8 (BioXCell #BE0117) at 10 mg/kg on days −6, −5 and −4 tumor cell implant and then weekly starting on day after tumor cells were injected or control antibody. […] Tumor volumes were measured and calculated using the formula as ½ * length * width^2. Mice were sacrificed when tumor volume reached >1500 mm^3, maximal tumor volume approved on our protocol for subcutaneous tumors.

In the case of `N.N.[Cl][Pt][Cl]` [Cisplatin], the IC50 (A549) is reported as 22.6 µM and 27.2 µM and 13.6 µM and 15.4 µM, the IC50 (HCT116) is reported as 42200 nM and 55500 nM and the IC50 (CAL27; 72 h drug exposure, one value per biological replicate, read-out: IC50 values) is reported as 3650 nM and 3760 nM and 7310 nM and 8270 nM and 7270 nM and 6950 nM. For the same molecule, the IC50 (Detroit 562; Detroit 562, 72 h drug exposure, one value per biological replicate, read-out: IC50 values) was 11.5 µM and 9.55 µM and 10.4 µM and 11.8 µM, the IC50 (4MOSC1; 4MOSC1, 72 h drug exposure, one value per biological replicate, read-out: IC50 values) was 1370 nM and 1460 nM and the IC50 (B16; B16, 72 h drug exposure, one value per biological replicate, read-out: IC50 values) was 3770 nM and 4490 nM. For the same molecule, the IC50 (LL2; LL2, 72 h drug exposure, one value per biological replicate, read-out: IC50 values) was 1080 nM and 745 nM, the IC50 (MC38; MC38, 72 h drug exposure, one value per biological replicate, read-out: IC50 values) was 3640 nM and 3830 nM and the IC50 (MOC1; MOC1; 72 h drug exposure, Alamar Blue; one value per biological replicate; read-out: IC50 values) was 13.7 µM and 15.3 µM and 10.4 µM and 10.7 µM. The IC50 (MOC2; MOC2, 72 h drug exposure, one value per biological replicate, read-out: IC50 values) was 8.75 µM and 9.99 µM.

For `CC[C@H](C)[C@@H]([C@@H](CC(=O)N1CCC[C@H]1[C@H](OC)[C@@H](C)C(=O)N[C@@H](Cc1ccccc1)C(=O)O)OC)N(C)C(=O)[C@@H](NC(=O)[C@@H](NC)C(C)C)C(C)C` [MMAF, monomethyl auristatin F] (H-[NMeV]V[Dil][Dolaproine]F-OH), the “cell permeability as free drug” value [1] is listed as “reduced cell permeability compared to MMAE”.

For `CC(=O)O[C@H]1C(=O)[C@@]2(C)[C@H]([C@H](OC(=O)c3ccccc3)[C@]3(O)C[C@H](OC(=O)[C@H](O)[C@@H](NC(=O)c4ccccc4)c4ccccc4)C(C)=C1C3(C)C)[C@]1(OC(C)=O)CO[C@@H]1C[C@@H]2O` [Paclitaxel], the IC50 (A549) was 0.0233 µM and 0.0151 µM, the IC50 (A549; Homo sapiens, A549, 72 h) was 0.0166 µM and the IC50 (HCT116) was 2.04 nM and 8.38 nM and 12.4 nM and 9.33 nM. For the same molecule, the IC50 (CAL27; read-out: IC50 values, 72 h drug exposure, one value per biological replicate) was 1.4 nM and 1.52 nM and 3.46 nM and 4.62 nM and 3.12 nM and 3.36 nM, the IC50 (Detroit 562; Homo sapiens, Detroit 562, 72 h, read-out: IC50 values, Detroit 562, 72 h drug exposure, one value per biological replicate) was 0.00571 µM and the IC50 (Detroit 562; read-out: IC50 values, Detroit 562, 72 h drug exposure, one value per biological replicate) was 0.00594 µM and 0.00387 µM and 0.00475 µM. It also gave an IC50 (4MOSC1; Mus musculus, 72 h, read-out: IC50 values, 4MOSC1, 72 h drug exposure, one value per biological replicate) of 7.65 nM, an IC50 (4MOSC1; read-out: IC50 values, 4MOSC1, 72 h drug exposure, one value per biological replicate) of 12.9 nM and an IC50 (B16; Mus musculus, B16, 72 h, read-out: IC50 values, B16, 72 h drug exposure, one value per biological replicate) of 6.1 nM. It also gave an IC50 (B16; read-out: IC50 values, B16, 72 h drug exposure, one value per biological replicate) of 7.8 nM, an IC50 (LL2; Mus musculus, LL/2, 72 h, read-out: IC50 values, LL2, 72 h drug exposure, one value per biological replicate) of 15.3 nM and an IC50 (LL2; read-out: IC50 values, LL2, 72 h drug exposure, one value per biological replicate) of 16.6 nM. The IC50 (MC38; Mus musculus, MC-38, 72 h, read-out: IC50 values, MC38, 72 h drug exposure, one value per biological replicate) was 67 nM, the IC50 (MC38; read-out: IC50 values, MC38, 72 h drug exposure, one value per biological replicate) was 75.7 nM and the IC50 (MOC1; read-out: IC50 values; MOC1; 72 h drug exposure, Alamar Blue; one value per biological replicate) was 0.0454 µM and 0.0542 µM and 0.0267 µM and 0.0246 µM. For the same molecule, the IC50 (MOC2; Mus musculus, 72 h, read-out: IC50 values, MOC2, 72 h drug exposure, one value per biological replicate) was 0.0435 µM and the IC50 (MOC2; read-out: IC50 values, MOC2, 72 h drug exposure, one value per biological replicate) was 0.0564 µM.

In the case of “Enapotamab vedotin: AXL-targeted ADC conjugate with an MMAE warhead”, the “survival and tumor control” value [2] is given as “prolonged mouse survival; also recorded: failed to generate durable tumor control”.

B1: CDX3379-MMAF: anti-HER3 antibody CDX3379 conjugated to MMAF via MC-VC-PABC linker (conjugate, chains of the INN, looked up)
VH: EVQLLESGGGLVQPGGSLRLSCAASGFTFSSYAMSWVRQAPGKGLEWVSAINSQGKSTYYADSVKGRFTISRDNSKNTLYLQMNSLRAEDTAVYYCARWGDEGFDIWGQGTLVTVSS
VL: DIQMTQSPSSLSASVGDRVTITCRASQGISNWLAWYQQKPGKAPKLLIYGASSLQSGVPSRFSGSGSGTDFTLTISSLQPEDFATYYCQQYSSFPTTFGQGTKVEIK
modifications: MMAF via MC-VC-PABC linker
In the case of B1, the “tumor control and survival, + IR” value (B16 tumors; B16, 2.5 nmoles ADC x 2 doses + IR 5 Gy x 3) is reported as “CDX3379-MMAE proved to be superior to CDX3379-MMAF” and the “Mouse survival, status” value (B16 tumors; with IR, individual mice, status at the day, Figure 3h) is reported as 1.
